Assay results published in article PMC8078842 (PLoS Neglected Tropical Diseases, 2021).

Test: In situ brain/choroid plexus perfusion (10 or 30 minutes) with capillary depletion
Conditions: 30 min perfusion, not corrected for vascular space

## [^3H(G)]pentamidine
Caudate putamen, Control (15.7 nM pent)
  RTISSUE/PLASMA% (mean ± SEM) of [^3H]pentamidine: 8.65 (± 0.28) %
Cerebellum, 0.01% F68 + 15.7 nM pent
  RTISSUE/PLASMA% (mean ± SEM) of [^3H]pentamidine: 9.38 (± 2.47) %
Cerebellum, 0.1% F68 + 15.7 nM pent
  RTISSUE/PLASMA% (mean ± SEM) of [^3H]pentamidine: 14.44 (± 2.47) %
Cerebellum, 0.5% F68 + 15.7 nM pent
  RTISSUE/PLASMA% (mean ± SEM) of [^3H]pentamidine: 17.28 (± 3.54) %
Cerebellum, Control (15.7 nM pent)
  RTISSUE/PLASMA% (mean ± SEM) of [^3H]pentamidine: 12.92 (± 1.10) %
Choroid plexus, 0.01% F68 + 15.7 nM pent
  RTISSUE/PLASMA% (mean ± SEM) of [^3H]pentamidine: 835.26 (± 260.20) %
Choroid plexus, 0.1% F68 + 15.7 nM pent
  RTISSUE/PLASMA% (mean ± SEM) of [^3H]pentamidine: 944.85 (± 235.90) %
Choroid plexus, 0.5% F68 + 15.7 nM pent
  RTISSUE/PLASMA% (mean ± SEM) of [^3H]pentamidine: 1844.80 (± 493.51) %
Choroid plexus, Control (15.7 nM pent)
  RTISSUE/PLASMA% (mean ± SEM) of [^3H]pentamidine: 1241.60 (± 92.86) %
Corpus callosum, 0.01% F68 + 15.7 nM pent
  RTISSUE/PLASMA% (mean ± SEM) of [^3H]pentamidine: 2.02 (± 1.22) %
Corpus callosum, 0.1% F68 + 15.7 nM pent
  RTISSUE/PLASMA% (mean ± SEM) of [^3H]pentamidine: 9.47 (± 0.94) %
Corpus callosum, 0.5% F68 + 15.7 nM pent
  RTISSUE/PLASMA% (mean ± SEM) of [^3H]pentamidine: 15.72 (± 6.78) %
Corpus callosum, Control (15.7 nM pent)
  RTISSUE/PLASMA% (mean ± SEM) of [^3H]pentamidine: 8.19 (± 1.97) %
Frontal cortex, 0.01% F68 + 15.7 nM pent
  RTISSUE/PLASMA% (mean ± SEM) of [^3H]pentamidine: 9.00 (± 1.47) %
Frontal cortex, 0.1% F68 + 15.7 nM pent
  RTISSUE/PLASMA% (mean ± SEM) of [^3H]pentamidine: 11.91 (± 1.35) %
Frontal cortex, 0.5% F68 + 15.7 nM pent
  RTISSUE/PLASMA% (mean ± SEM) of [^3H]pentamidine: 17.54 (± 3.58) %
Frontal cortex, Control (15.7 nM pent)
  RTISSUE/PLASMA% (mean ± SEM) of [^3H]pentamidine: 10.35 (± 0.84) %
Hippocampus, 0.01% F68 + 15.7 nM pent
  RTISSUE/PLASMA% (mean ± SEM) of [^3H]pentamidine: 6.05 (± 1.20) %
Hippocampus, 0.1% F68 + 15.7 nM pent
  RTISSUE/PLASMA% (mean ± SEM) of [^3H]pentamidine: 7.93 (± 1.20) %
Hippocampus, 0.5% F68 + 15.7 nM pent
  RTISSUE/PLASMA% (mean ± SEM) of [^3H]pentamidine: 10.65 (± 2.55) %
Hippocampus, Control (15.7 nM pent)
  RTISSUE/PLASMA% (mean ± SEM) of [^3H]pentamidine: 8.19 (± 0.30) %
Homogenate (capillary depletion), 0.01% F68 + 15.7 nM pent
  RTISSUE/PLASMA% (mean ± SEM) of [^3H]pentamidine: 9.63 (± 0.93) %
Homogenate (capillary depletion), 0.1% F68 + 15.7 nM pent
  RTISSUE/PLASMA% (mean ± SEM) of [^3H]pentamidine: 11.19 (± 1.62) %
Homogenate (capillary depletion), 0.5% F68 + 15.7 nM pent
  RTISSUE/PLASMA% (mean ± SEM) of [^3H]pentamidine: 14.45 (± 3.93) %
Homogenate (capillary depletion), Control (15.7 nM pent)
  RTISSUE/PLASMA% (mean ± SEM) of [^3H]pentamidine: 10.18 (± 0.92) %
Hypothalamus, 0.01% F68 + 15.7 nM pent
  RTISSUE/PLASMA% (mean ± SEM) of [^3H]pentamidine: 8.90 (± 1.42) %
Hypothalamus, 0.1% F68 + 15.7 nM pent
  RTISSUE/PLASMA% (mean ± SEM) of [^3H]pentamidine: 11.17 (± 1.42) %
Hypothalamus, 0.5% F68 + 15.7 nM pent
  RTISSUE/PLASMA% (mean ± SEM) of [^3H]pentamidine: 18.73 (± 4.67) %
Hypothalamus, Control (15.7 nM pent)
  RTISSUE/PLASMA% (mean ± SEM) of [^3H]pentamidine: 18.49 (± 4.17) %
Occipital cortex, 0.01% F68 + 15.7 nM pent
  RTISSUE/PLASMA% (mean ± SEM) of [^3H]pentamidine: 8.80 (± 1.47) %
Occipital cortex, 0.1% F68 + 15.7 nM pent
  RTISSUE/PLASMA% (mean ± SEM) of [^3H]pentamidine: 12.14 (± 1.62) %
Occipital cortex, 0.5% F68 + 15.7 nM pent
  RTISSUE/PLASMA% (mean ± SEM) of [^3H]pentamidine: 15.85 (± 2.71) %
Occipital cortex, Control (15.7 nM pent)
  RTISSUE/PLASMA% (mean ± SEM) of [^3H]pentamidine: 9.52 (± 1.08) %
Pellet (capillary depletion), 0.01% F68 + 15.7 nM pent
  RTISSUE/PLASMA% (mean ± SEM) of [^3H]pentamidine: 18.16 (± 2.79) %
Pellet (capillary depletion), 0.1% F68 + 15.7 nM pent
  RTISSUE/PLASMA% (mean ± SEM) of [^3H]pentamidine: 22.15 (± 4.44) %
Pellet (capillary depletion), Control (15.7 nM pent)
  RTISSUE/PLASMA% (mean ± SEM) of [^3H]pentamidine: 16.45 (± 2.76) %
Pineal gland, 0.01% F68 + 15.7 nM pent
  RTISSUE/PLASMA% (mean ± SEM) of [^3H]pentamidine: 341.30 (± 39.57) %
Pineal gland, 0.1% F68 + 15.7 nM pent
  RTISSUE/PLASMA% (mean ± SEM) of [^3H]pentamidine: 342.95 (± 92.02) %
Pineal gland, 0.5% F68 + 15.7 nM pent
  RTISSUE/PLASMA% (mean ± SEM) of [^3H]pentamidine: 525.94 (± 122.85) %
Pineal gland, Control (15.7 nM pent)
  RTISSUE/PLASMA% (mean ± SEM) of [^3H]pentamidine: 664.25 (± 82.42) %
Pituitary gland, 0.01% F68 + 15.7 nM pent
  RTISSUE/PLASMA% (mean ± SEM) of [^3H]pentamidine: 324.42 (± 44.06) %
Pituitary gland, 0.1% F68 + 15.7 nM pent
  RTISSUE/PLASMA% (mean ± SEM) of [^3H]pentamidine: 434.10 (± 59.56) %
Pituitary gland, 0.5% F68 + 15.7 nM pent
  RTISSUE/PLASMA% (mean ± SEM) of [^3H]pentamidine: 881.90 (± 170.25) %
Pituitary gland, Control (15.7 nM pent)
  RTISSUE/PLASMA% (mean ± SEM) of [^3H]pentamidine: 394.51 (± 52.42) %
Pons, 0.01% F68 + 15.7 nM pent
  RTISSUE/PLASMA% (mean ± SEM) of [^3H]pentamidine: 17.61 (± 3.70) %
Pons, 0.1% F68 + 15.7 nM pent
  RTISSUE/PLASMA% (mean ± SEM) of [^3H]pentamidine: 20.36 (± 3.70) %
Pons, 0.5% F68 + 15.7 nM pent
  RTISSUE/PLASMA% (mean ± SEM) of [^3H]pentamidine: 20.43 (± 5.67) %
Pons, Control (15.7 nM pent)
  RTISSUE/PLASMA% (mean ± SEM) of [^3H]pentamidine: 15.16 (± 1.48) %
Supernatant (capillary depletion), 0.01% F68 + 15.7 nM pent
  RTISSUE/PLASMA% (mean ± SEM) of [^3H]pentamidine: 3.77 (± 0.94) %
Supernatant (capillary depletion), 0.1% F68 + 15.7 nM pent
  RTISSUE/PLASMA% (mean ± SEM) of [^3H]pentamidine: 6.63 (± 0.52) %
Supernatant (capillary depletion), 0.5% F68 + 15.7 nM pent
  RTISSUE/PLASMA% (mean ± SEM) of [^3H]pentamidine: 6.45 (± 1.35) %
Supernatant (capillary depletion), Control (15.7 nM pent)
  RTISSUE/PLASMA% (mean ± SEM) of [^3H]pentamidine: 5.54 (± 0.37) %
Thalamus, 0.01% F68 + 15.7 nM pent
  RTISSUE/PLASMA% (mean ± SEM) of [^3H]pentamidine: 7.99 (± 1.06) %
Thalamus, 0.1% F68 + 15.7 nM pent
  RTISSUE/PLASMA% (mean ± SEM) of [^3H]pentamidine: 11.08 (± 1.06) %
Thalamus, 0.5% F68 + 15.7 nM pent
  RTISSUE/PLASMA% (mean ± SEM) of [^3H]pentamidine: 13.52 (± 3.10) %
Thalamus, Control (15.7 nM pent)
  RTISSUE/PLASMA% (mean ± SEM) of [^3H]pentamidine: 9.94 (± 1.95) %
